42 compounds from patent US20090192192A1, “INHIBITORS OF BIOFILM FORMATION OF GRAM-POSITIVE AND GRAM-NEGATIVE BACTERIA” (priority 2007, published 2009) can be followed below.

Each structure is given as a SMILES string. Some results are limits rather than exact numbers.

One may read the inhibition as the percentage by which the read-out fell short of the control. Low values mean a weak effect, high ones a strong effect.

The test deals with Pseudomonas aeruginosa PAO1. Nature of the test: MBEC assay, biofilm formation of P. aeruginosa PAO1. Type of test: cell-based. As to conditions: compound concentration 100 μM, class symbols. The protocol: The compound to be tested was dissolved in DMSO to obtain a concentration that was 100 times that of the final concentration required (1 mM for the 10 μM assay and 10 mM for the 100 μM assay). 1.5 μL of the above solution was placed into each well of a 96 well plate (final volume in each well=150 μL, final DMSO concentration of 1% (v/v)).
To grow the organism and form a biofilm, a cryogenic stock of the test organism (at −70° C.) was used. A first sub-culture was streaked out onto TSA (tryptic soy agar), upon which the plate was incubated at 35±2° C. for 24 hours and stored wrapped in parafilm at 4° C. afterwards. From this first sub-culture, a second sub-culture was streaked out onto TSA. The plate was incubated at 35±2° C. for 24 hours. The second sub-culture was used within 24 hours starting from the time it was first removed from incubation. Using the second sub-culture an inoculum in 3 mL sterile water that matches a 0.5 McFarland Standard (1.5×10^8 cells per mL) was created in a glass test tube using a sterile cotton swab. 2.2 mL of this solution was diluted in 22 mL 100% TSB (tryptic soy broth) medium to a cell density of approximately […]. The diluted organism was inverted 3-5 times to achieve uniform mixing of the organism. One sample (100 μl) of the diluted organism was used for an inoculum check by serially diluting and spot plating on TSA.
To prepare a challenge plate, […] of the diluted organism was added to each well of a 96 well plate except the sterility control wells. The test compounds were added to the wells to make up final concentrations of 10 μM and […] (1.5 μL/well) in the designated location in the test plate. 128.5 μL of 100% universal neutralizer (1% Tween 80 in Cation Adjusted Mueller Hinton Broth, CAMHB) was placed in each of the wells. 130 μL of media was added to the growth control wells. 128.5 μL of media+1.5 μL of DMSO were added to a second set of growth control wells. 150 μL of media was added to the sterility controls. Each sample was run in triplicate. The plate was covered by a lid with a peg per well and wrapped in parafilm and placed on a shaker in a humidified incubator (GeneVac) at 35±+2° C. for 24 hours set at 110 rpm.
Rinse plate(s) of 0.9% saline (200 μL per well) were prepared in a sterile 96 well microtitre plate. Lid-associated pegs were rinsed in 0.9% saline for approximately 1-2 minutes. The peg lid was transferred to the recovery media (1.0% Tween 80 in CAMHB) then sonicated for 30 minutes to dislodge surviving biofilm. Following sonication, 100 μL from each well of the 96 well plate was placed into the first 12 wells of the first row of a 96 well microtiter plate. 180 μl of 0.9% sterile saline was placed in the remaining rows. A serial dilution (10^0-10^7) was prepared by moving 20 μl down each of the 8 rows. 20 μl from each well was removed and spot plated on a prepared TSA. In the remaining recovery plate, 100 μl of fresh growth media (1.0% Tween 80 in CAMHB) was placed in each well to replace the amount removed. The recovery plate was covered with a regular lid and incubated at 35±2° C. for 24 hours and read visually to confirm antimicrobial activity of the test compounds.
The compounds of the present disclosure have been tested regarding their efficiency to inhibit biofilm formation of Staphylococcus aureus U of C#18 (MRSA), Staphylococcus aureus 456 (MRSA), Staphylococcus epidermidis RP62A, and Pseudomonas aeruginosa PAO1.
The compound `CCCCCCCCCCNC(=O)Nc1ccccc1C(F)(F)F` [Example 57, 1-decyl-3-(2-(trifluoromethyl)phenyl)urea] had an inhibition at 100 µM of 20 to 50%.

For the compound `CCCCCCCCCCNC(=O)N(C)c1ccccc1C(F)(F)F` [Example 58, 3-decyl-1-methyl-1-(2-(trifluoromethyl)phenyl)urea], the inhibition at 100 µM was > 50%.

Take `CCCCCCCCCCNC(=O)N[C@@H](C)c1ccccc1` [Example 59, (S)-1-decyl-3-(1-phenylethyl)urea]: the inhibition at 100 µM was < 20%.

In the case of `CCCCCCCCCCNC(=O)N(C)[C@H](C)c1ccccc1` [Example 60, (R)-3-decyl-1-methyl-1-(1-phenylethyl)urea], the inhibition at 100 µM is > 50%.

`CCCCCCCCCCNC(=O)Nc1ccnn1C` [Example 61, 1-decyl-3-(1-methylpyrazol-5-yl)urea] yielded an inhibition at 100 µM of 20 to 50%.

`CCCCCCCCCCNC(=O)Nc1cc(C)ns1` [Example 62, 1-decyl-3-(3-methylisothiazol-5-yl)urea]: the inhibition at 100 µM was < 20%.

For the compound `CCCCCCCCCCNC(=O)Nc1cc(C)nn1C` [Example 63, 1-decyl-3-(1,3-dimethylpyrazol-5-yl)urea], the inhibition at 100 µM fell in the range of 20 to 50%.

For the compound `CCCCCCCCCCNC(=O)Nc1ccnn1CC` [Example 64, 1-decyl-3-(1-ethylpyrazol-5-yl)urea], the inhibition at 100 µM fell in the range of 20 to 50%.

Take `CCCCCCCCCCNC(=O)Nc1cc(C2CC2)n[nH]1` [Example 65, 1-(3-cyclopropylpyrazol-5-yl)-3-decylurea]: the inhibition at 100 µM is > 50%.

Regarding `CCCCCCCCCCNC(=O)Nc1cc(C2CC2)nn1C` [Example 66, 1-(3-cyclopropyl-1-methylpyrazol-5-yl)-3-decylurea], the inhibition at 100 µM was > 50%.

Turning to `CCCCCCCCCCNC(=O)Nc1cc(C2CC2)nn1C(C)=O` [Example 67, 1-(1-acetyl-3-cyclopropylpyrazol-5-yl)-3-decylurea], the inhibition at 100 µM was > 50%.

The compound `CCCCCCCCCCNC(=O)Nc1cc(C(C)(C)C)n[nH]1` [Example 68, 1-(3-tert-butylpyrazol-5-yl)-3-decylurea] returned an inhibition at 100 µM of 20 to 50%.

Turning to `CCCCCCCCCCNC(=O)N(C)c1cc(C(C)(C)C)nn1C` [Example 69, 1-(3-tert-butyl-1-methylpyrazol-5-yl)-3-decyl-1-methylurea], the inhibition at 100 µM is > 50%.

With `CCCCCCCCCCNC(=O)Nc1cc(C)nn1C(C)(C)C` [Example 70, 1-(1-tert-butyl-3-methylpyrazol-5-yl)-3-decylurea], the inhibition at 100 µM was > 50%.

With `CCCCCCCCCCNC(=O)Nc1cc(-c2ccccc2)nn1C` [Example 71, 1-decyl-3-(1-methyl-3-phenylpyrazol-5-yl)urea], the inhibition at 100 µM was < 20%.

As for `CCCCCCCCCCNC(=O)N(C)c1cc(-c2ccccc2)nn1C` [Example 72, 3-decyl-1-methyl-1-(1-methyl-3-phenylpyrazol-5-yl)urea], the inhibition at 100 µM was 20 to 50%.

Consider `CCCCCCCCCCNC(=O)/N=c1/cc(-c2ccccc2)n(C)n1C` [Example 73, 1-decyl-3-(1,2-dimethyl-5-phenylpyrazol-3-ylidene)urea], for which the inhibition at 100 µM is > 50%.

As for `CCCCCCCCCCNC(=O)Nc1cc(C)nn1-c1ccccc1` [Example 74, 1-decyl-3-(3-methyl-1-phenylpyrazol-5-yl)urea], the inhibition at 100 µM was < 20%.

For the compound `CCCCCCCCCCNC(=O)Nc1nnc(C2CC2)s1` [Example 75, 1-(5-cyclopropyl-1,3,4-thiadiazol-2-yl)-3-decylurea], the inhibition at 100 µM was 20 to 50%.

On to `CCCCCCCCCCNC(=O)Nc1nnc(C(C)(C)C)s1` [Example 76, 1-(5-tert-butyl-1,3,4-thiadiazol-2-yl)-3-decylurea], for which the inhibition at 100 µM was > 50%.

On to `CCCCCCCCCCNC(=O)Nc1nnc(-c2ccccc2)s1` [Example 77, 1-decyl-3-(5-phenyl-1,3,4-thiadiazol-2-yl)urea], for which the inhibition at 100 µM is < 20%.

For the compound `CCCCCCCCCCNC(=O)Nc1nc(C(C)(C)C)cs1` [Example 78, 1-(4-tert-butylthiazol-2-yl)-3-decylurea], the inhibition at 100 µM was in the range of 20 to 50%.

In the case of `CCCCCCCCCCNC(=O)Nc1nc(-c2ccccc2)cs1` [Example 79, 1-decyl-3-(4-phenylthiazol-2-yl)urea], the inhibition at 100 µM lay within 20 to 50%.

`CCCCCCCCCCCNC(=O)Nc1cc(C2CC2)nn1C` [Example 80, 1-(3-cyclopropyl-1-methylpyrazol-5-yl)-3-undecylurea]: the inhibition at 100 µM was 20 to 50%.

For `CCCCCCCCCCCNC(=O)Nc1cc(C(C)(C)C)nn1C` [Example 81, 1-(3-tert-butyl-1-methylpyrazol-5-yl)-3-undecylurea], the inhibition at 100 µM was > 50%.

Take `CCCCCCCCCCCNC(=O)Nc1cc(-c2ccccc2)nn1C` [Example 82, 1-(1-methyl-3-phenylpyrazol-5-yl)-3-undecylurea]: the inhibition at 100 µM is < 20%.

`CCCCCCCCCCCCNC(=O)Nc1cc(C)nn1C` [Example 83, 1-(1,3-dimethylpyrazol-5-yl)-3-dodecylurea] displayed an inhibition at 100 µM of 20 to 50%.

Take `CCCCCCCCCCCCNC(=O)Nc1cc(C2CC2)nn1C` [Example 84, 1-(3-cyclopropyl-1-methylpyrazol-5-yl)-3-dodecylurea]: the inhibition at 100 µM was < 20%.

On to `CCCCCCCCCCCCNC(=O)Nc1cc(C(C)(C)C)nn1C` [Example 85, 1-(3-tert-butyl-1-methylpyrazol-5-yl)-3-dodecylurea], for which the inhibition at 100 µM is > 50%.

As for `CCCCCCCCCCCCNC(=O)Nc1cc(-c2ccccc2)nn1C` [Example 86, 1-dodecyl-3-(1-methyl-3-phenylpyrazol-5-yl)urea], the inhibition at 100 µM is < 20%.

In the case of `CCCCCCCCCCCCCCNC(=O)Nc1cc(C)nn1C` [Example 87, 1-(1,3-dimethylpyrazol-5-yl)-3-tetradecylurea], the inhibition at 100 µM is < 20%.

In the case of `CCCCCCCCCCCCCCNC(=O)Nc1cc(C(C)(C)C)nn1C` [Example 88, 1-(3-tert-butyl-1-methylpyrazol-5-yl)-3-tetradecylurea], the inhibition at 100 µM is > 50%.

For `CCCCCCCCCCCCCCCCNC(=O)Nc1cc(C)nn1C` [Example 89, 1-(1,3-dimethylpyrazol-5-yl)-3-hexadecylurea], the inhibition at 100 µM was < 20%.

Regarding `CCCCCCCCCCCCCCCCNC(=O)Nc1cc(C2CC2)nn1C` [Example 90, 1-(3-cyclopropyl-1-methylpyrazol-5-yl)-3-hexadecylurea], the inhibition at 100 µM was < 20%.

`CCCCCCCCCCCCCCCCNC(=O)Nc1cc(C(C)(C)C)nn1C` [Example 91, 1-(3-tert-butyl-1-methylpyrazol-5-yl)-3-hexadecylurea]: the inhibition at 100 µM was 20 to 50%.

Regarding `CCCCCCCCCCCCCCCCCCNC(=O)Nc1cc(C)nn1C` [Example 92, 1-(1,3-dimethylpyrazol-5-yl)-3-octadecylurea], the inhibition at 100 µM is < 20%.

Take `CCCCCCCCCCCCCCCCCCNC(=O)Nc1cc(C2CC2)nn1C` [Example 93, 1-(3-cyclopropyl-1-methyrpyrazol-5-yl)-3-octadecylurea]: the inhibition at 100 µM was < 20%.

`CCCCCCCCCCCCCCCCCCNC(=O)Nc1cc(C(C)(C)C)nn1C` [Example 94, 1-(3-tert-butyl-1-methylpyrazol-5-yl)-3-octadecylurea] showed an inhibition at 100 µM of 20 to 50%.

Regarding `CCCCCCCCCC(=O)NC(=O)N(C)c1ccc(F)cc1` [Example 95, N-((4-fluorophenyl)(methyl)carbamoyl)decanamide], the inhibition at 100 µM is > 50%.

For `CCCCCCCCCC(=O)NC(=O)Nc1ccccc1C(F)(F)F` [Example 96, N-(2-(trifluoromethyl)phenylcarbamoyl)decanamide], the inhibition at 100 µM was < 20%.

Turning to `CCCCCCCCCC(=O)NC(=O)N[C@@H](C)c1ccccc1` [Example 97, (S)-N-(1-phenylethylcarbamoyl)decanamide], the inhibition at 100 µM was in the range of 20 to 50%.

As to `CCCCCCCCCC(=O)NC(=O)N[C@H](C)c1ccccc1` [Example 98, (R)-N-(1-phenylethylcarbamoyl)decanamide], the inhibition at 100 µM was > 50%.
